Measured values from patent US10941158B2, “Pyrazole ACC inhibitors and uses thereof” (Gilead Apollo, LLC, priority 2015, dated 2021).
Values after ≈ are worked out from the molar mass of the structure shown. Like-named read-outs stand apart in the source and are kept apart here.

Experiments:
human (hACC2) ACC2 = human (hACC2) ACC2 (Homo sapiens, UniProt O00763); test: In vitro Acetyl-CoA Carboxylase (ACC) inhibition assay (ADP-Glo), hACC2; type: biochemical
Description: The detailed procedure is as follows. […] 10 μL ADP glo reagent was added. […] 20 μL kinase detection reagent was added.
“NA” stands for “not assayed.”

fungal (fACC2) ACC2 = fungal (fACC2) ACC2 (UniProt Q00955); conditions: read-out: fACC2 IC50; fungal ACC2, ADP-Glo
fungal (fACC2) ACC2, sequence (Q00955 whole entry): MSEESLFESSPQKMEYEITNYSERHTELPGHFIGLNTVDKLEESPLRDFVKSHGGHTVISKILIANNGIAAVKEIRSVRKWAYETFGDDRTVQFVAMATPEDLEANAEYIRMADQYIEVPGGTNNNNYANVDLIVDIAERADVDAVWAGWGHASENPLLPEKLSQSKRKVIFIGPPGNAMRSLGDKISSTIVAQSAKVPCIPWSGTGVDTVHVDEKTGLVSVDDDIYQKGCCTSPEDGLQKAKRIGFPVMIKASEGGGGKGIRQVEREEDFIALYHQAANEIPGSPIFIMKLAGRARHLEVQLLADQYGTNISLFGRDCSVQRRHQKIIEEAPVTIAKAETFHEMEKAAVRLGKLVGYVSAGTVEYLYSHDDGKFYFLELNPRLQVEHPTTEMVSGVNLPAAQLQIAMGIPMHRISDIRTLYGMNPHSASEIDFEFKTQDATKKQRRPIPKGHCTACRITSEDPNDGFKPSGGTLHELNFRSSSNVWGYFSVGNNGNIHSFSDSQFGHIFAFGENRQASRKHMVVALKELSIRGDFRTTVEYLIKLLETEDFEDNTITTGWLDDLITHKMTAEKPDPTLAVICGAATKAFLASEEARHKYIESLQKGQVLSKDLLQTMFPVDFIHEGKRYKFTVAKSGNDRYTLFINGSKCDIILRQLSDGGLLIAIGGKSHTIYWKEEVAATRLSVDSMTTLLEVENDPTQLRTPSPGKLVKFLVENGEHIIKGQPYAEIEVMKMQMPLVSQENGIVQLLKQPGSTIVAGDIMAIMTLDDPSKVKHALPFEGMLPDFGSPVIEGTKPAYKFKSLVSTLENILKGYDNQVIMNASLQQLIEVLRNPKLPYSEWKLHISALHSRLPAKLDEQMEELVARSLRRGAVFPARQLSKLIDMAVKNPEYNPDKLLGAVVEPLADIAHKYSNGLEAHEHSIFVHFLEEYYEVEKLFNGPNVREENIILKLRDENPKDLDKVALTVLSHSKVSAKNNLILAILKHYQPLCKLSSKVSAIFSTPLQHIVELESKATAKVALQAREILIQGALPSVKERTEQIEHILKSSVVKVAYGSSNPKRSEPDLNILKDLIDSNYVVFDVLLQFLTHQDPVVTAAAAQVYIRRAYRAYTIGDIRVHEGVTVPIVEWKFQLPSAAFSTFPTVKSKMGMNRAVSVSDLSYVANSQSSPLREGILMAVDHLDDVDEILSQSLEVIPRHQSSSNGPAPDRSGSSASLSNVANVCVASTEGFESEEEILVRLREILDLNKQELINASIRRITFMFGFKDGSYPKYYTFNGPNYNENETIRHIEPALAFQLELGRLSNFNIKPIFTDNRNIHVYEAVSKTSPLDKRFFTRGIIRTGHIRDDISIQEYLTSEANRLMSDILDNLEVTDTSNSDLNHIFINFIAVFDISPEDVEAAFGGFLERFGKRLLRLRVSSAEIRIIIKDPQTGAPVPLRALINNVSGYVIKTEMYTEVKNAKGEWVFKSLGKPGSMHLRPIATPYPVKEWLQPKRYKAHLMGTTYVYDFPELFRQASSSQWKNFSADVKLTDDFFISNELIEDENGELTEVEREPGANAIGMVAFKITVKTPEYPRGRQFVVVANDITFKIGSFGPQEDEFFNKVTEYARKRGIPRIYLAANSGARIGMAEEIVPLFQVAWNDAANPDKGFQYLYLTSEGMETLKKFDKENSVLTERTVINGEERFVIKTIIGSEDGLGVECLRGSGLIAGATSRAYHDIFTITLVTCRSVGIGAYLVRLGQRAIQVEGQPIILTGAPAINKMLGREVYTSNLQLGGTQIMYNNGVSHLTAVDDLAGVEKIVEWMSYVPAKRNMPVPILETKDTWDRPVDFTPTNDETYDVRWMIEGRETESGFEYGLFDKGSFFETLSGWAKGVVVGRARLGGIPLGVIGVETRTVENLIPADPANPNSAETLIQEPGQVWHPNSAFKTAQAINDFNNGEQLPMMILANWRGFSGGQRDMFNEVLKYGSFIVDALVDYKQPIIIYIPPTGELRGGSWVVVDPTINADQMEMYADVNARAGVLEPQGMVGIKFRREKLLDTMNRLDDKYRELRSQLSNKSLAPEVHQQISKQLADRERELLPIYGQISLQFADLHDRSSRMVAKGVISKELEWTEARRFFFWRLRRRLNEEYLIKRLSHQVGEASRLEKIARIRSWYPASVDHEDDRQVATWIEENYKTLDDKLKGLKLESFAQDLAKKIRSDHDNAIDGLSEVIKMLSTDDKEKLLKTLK
Description: An exemplary procedure for the in vitro ACC inhibition assay, which can be used to determine the inhibitory action of compounds of the invention toward either human (hACC2) or fungal (fACC2) ACC2, follows. The ADP-Glo™ Kinase Assay kit from Promega was used. The ADP-Glo™ Kinase Assay is a luminescent ADP detection assay to measure enzymatic activity by quantifying the amount of ADP produced during an enzyme reaction. The assay is performed in two steps; first, after the enzyme reaction, an equal volume of ADP-Glo™ Reagent is added to terminate the reaction and deplete the remaining ATP. Second, the Kinase Detection Reagent is added to simultaneously convert ADP to ATP and allow the newly synthesized ATP to be measured using a luciferase/luciferin reaction. Luminescence can be correlated to ADP concentrations by using an ATP-to-ADP conversion curve. The detailed procedure is as follows. 50 μL of the compound being tested (600 μM in DMSO) was added to a 384-well dilution plate. The compound was diluted 1:3 in succession in DMSO for each row for 11 wells. 0.5 μL ACC2 working solution was added to 384-well white Optiplate assay plate. 0.5 μL diluted compound solution in each column from step 2 was added to assay plate, each row containing 2 replicates. […] The plates were incubated at room temperature for 15 minutes. 5 μL substrate working solution was added to each well to initiate reaction. Final ACC2 reaction concentrations consist of: 5 nM ACC2, 20 μM ATP, 20 μM acetyl-CoA, 12 mM NaHCO3, 0.01% Brij35, 2 mM DTT, 5% DMSO, test compound concentrations: 30 μM, 10 μM, 3.33 μM, 1.11 μM, 0.37 μM, 0.123 μM, 0.0411 μM, 0.0137 μM, 0.00457 μM, 0.00152 μM, and 0.00051 μM. Plates were incubated at room temperature for 60 minutes. 10 μL ADP glo reagent was added. Plates were incubated at room temperature for 40 minutes. 20 μL kinase detection reagent was added. Plates were incubated at room temperature for 40 minutes, and then read on a Perkin Elmer EnVision 2104 plate reader for luminescence as Relative Light Units (RLU).
Data for each concentration, as well as the positive and negative controls were averaged, and the standard deviation calculated. Percent inhibition was calculated by the formula: 100×(average negative control−compound)/(average negative control−average positive control). The IC50 for each compound was calculated by fitting the data with a non-linear regression equation: Y=Bottom+(Top-Bottom)/(1+10^((Log IC50−X)*Hill Slope)), where X is the log of compound concentration and Y is percent inhibition.
Compounds having an activity designated as “AA” provided an IC50 0.0006-0.003 μM; provided an “A” provided an IC50 0.003-0.01 μM; compounds having an activity designated as “B” provided an IC50 0.01-0.04 μM; and compounds having an activity designated as “C” provided an IC50>0.04 μM IC50. “NA” stands for “not assayed.”

C. albicans ATCC 90028 = test: Anti-Fungal (Candida) Activity Assay, broth microtiter MIC; type: cell-based; conditions: ATCC90028, 3 replicates, MIC recorded at 48 h, read-out: MIC C. albicans ATCC 90028
Outline: (§1)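 MIC by visual comparison of challenged wells with growth control, scored at 48 h. Setup: CLSI M27-A3 broth microtiter plates, RPMI 1640+MOPS medium, direct colony suspension from overnight Sabouraud agar cultures (35 °C, 24 h).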

C. krusei ATCC 6258 = test: as above; type: cell-based; conditions: Pichia kudriavzevii, ATCC6258; 3 replicates, MIC recorded at 48 h; read-out: MIC C. krusei ATCC 6258
Outline: as §1

[1] = system: C. parapsilosis ATCC 22019; test: as above; type: cell-based; conditions: Lodderomyces parapsilosis, ATCC22019; 3 replicates, MIC recorded at 48 h; read-out: MIC C. parapsilosis ATCC 22019
Outline: as §1

Rhizoctonia solani (Rs) = test: Growth inhibition assay of fungal pathogens; type: cell-based; conditions: 48 h, read-out: Concentration at 90% Inhibition Rs
Outline: (§2)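 Percent growth inhibition was derived from 48 h OD600 and visual scores relative to 2% DMSO, with blank background subtraction. Fungi were grown from spores in 17% V8 liquid medium, R. solani from 1.5 mm plugs in ¼ PDB, with compound at final 50/10/2 or 2/0.4/0.08 ppm.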

[2] = system: Fusarium virguliforme (Fv); test: Growth inhibition assay of fungal pathogens; type: cell-based; conditions: 48 h, 48 hours, read-out: Concentration at 90% Inhibition Fv
Outline: (§3)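 Liquid-culture assay in which test compounds are applied at three final concentrations (50, 10, 2 ppm or 2, 0.4, 0.08 ppm). Inoculum levels follow 48 h growth curves for each fungus. Growth is monitored by OD600 and by eye, and the 48 h values give % inhibition against DMSO.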

[3] = system: Phytophthora capsici (Pc); test: Growth inhibition assay of fungal pathogens; type: cell-based; conditions: 48 hours
Outline: as §3

[4] = system: Collectotrichum graminicola (Cg); test: Growth inhibition assay of fungal pathogens; type: cell-based; conditions: 48 h, read-out: Concentration at 90% Inhibition Cg
Outline: as §3

Diplodia maydis (Dm) = test: Growth inhibition assay of fungal pathogens; type: cell-based; conditions: Stenocarpella maydis, 48 h, read-out: Concentration at 90% Inhibition Dm
Outline: as §2

[5] = system: Fusarium moniliforme (Fm); test: Growth inhibition assay of fungal pathogens; type: cell-based; conditions: Fusarium verticillioides, 48 h, 48 hours, read-out: Concentration at 90% Inhibition Fm
Outline: as §2

Botrtyis cinerea (Bc) = test: Growth inhibition assay of fungal pathogens; type: cell-based; conditions: 48 h, read-out: Concentration at 90% Inhibition Bc
Outline: as §2

Septoria tritici (St) = test: Growth inhibition assay of fungal pathogens; type: cell-based; conditions: 48 hours
Outline: as §3

human (hACC2) ACC2, sequence (O00763 whole entry): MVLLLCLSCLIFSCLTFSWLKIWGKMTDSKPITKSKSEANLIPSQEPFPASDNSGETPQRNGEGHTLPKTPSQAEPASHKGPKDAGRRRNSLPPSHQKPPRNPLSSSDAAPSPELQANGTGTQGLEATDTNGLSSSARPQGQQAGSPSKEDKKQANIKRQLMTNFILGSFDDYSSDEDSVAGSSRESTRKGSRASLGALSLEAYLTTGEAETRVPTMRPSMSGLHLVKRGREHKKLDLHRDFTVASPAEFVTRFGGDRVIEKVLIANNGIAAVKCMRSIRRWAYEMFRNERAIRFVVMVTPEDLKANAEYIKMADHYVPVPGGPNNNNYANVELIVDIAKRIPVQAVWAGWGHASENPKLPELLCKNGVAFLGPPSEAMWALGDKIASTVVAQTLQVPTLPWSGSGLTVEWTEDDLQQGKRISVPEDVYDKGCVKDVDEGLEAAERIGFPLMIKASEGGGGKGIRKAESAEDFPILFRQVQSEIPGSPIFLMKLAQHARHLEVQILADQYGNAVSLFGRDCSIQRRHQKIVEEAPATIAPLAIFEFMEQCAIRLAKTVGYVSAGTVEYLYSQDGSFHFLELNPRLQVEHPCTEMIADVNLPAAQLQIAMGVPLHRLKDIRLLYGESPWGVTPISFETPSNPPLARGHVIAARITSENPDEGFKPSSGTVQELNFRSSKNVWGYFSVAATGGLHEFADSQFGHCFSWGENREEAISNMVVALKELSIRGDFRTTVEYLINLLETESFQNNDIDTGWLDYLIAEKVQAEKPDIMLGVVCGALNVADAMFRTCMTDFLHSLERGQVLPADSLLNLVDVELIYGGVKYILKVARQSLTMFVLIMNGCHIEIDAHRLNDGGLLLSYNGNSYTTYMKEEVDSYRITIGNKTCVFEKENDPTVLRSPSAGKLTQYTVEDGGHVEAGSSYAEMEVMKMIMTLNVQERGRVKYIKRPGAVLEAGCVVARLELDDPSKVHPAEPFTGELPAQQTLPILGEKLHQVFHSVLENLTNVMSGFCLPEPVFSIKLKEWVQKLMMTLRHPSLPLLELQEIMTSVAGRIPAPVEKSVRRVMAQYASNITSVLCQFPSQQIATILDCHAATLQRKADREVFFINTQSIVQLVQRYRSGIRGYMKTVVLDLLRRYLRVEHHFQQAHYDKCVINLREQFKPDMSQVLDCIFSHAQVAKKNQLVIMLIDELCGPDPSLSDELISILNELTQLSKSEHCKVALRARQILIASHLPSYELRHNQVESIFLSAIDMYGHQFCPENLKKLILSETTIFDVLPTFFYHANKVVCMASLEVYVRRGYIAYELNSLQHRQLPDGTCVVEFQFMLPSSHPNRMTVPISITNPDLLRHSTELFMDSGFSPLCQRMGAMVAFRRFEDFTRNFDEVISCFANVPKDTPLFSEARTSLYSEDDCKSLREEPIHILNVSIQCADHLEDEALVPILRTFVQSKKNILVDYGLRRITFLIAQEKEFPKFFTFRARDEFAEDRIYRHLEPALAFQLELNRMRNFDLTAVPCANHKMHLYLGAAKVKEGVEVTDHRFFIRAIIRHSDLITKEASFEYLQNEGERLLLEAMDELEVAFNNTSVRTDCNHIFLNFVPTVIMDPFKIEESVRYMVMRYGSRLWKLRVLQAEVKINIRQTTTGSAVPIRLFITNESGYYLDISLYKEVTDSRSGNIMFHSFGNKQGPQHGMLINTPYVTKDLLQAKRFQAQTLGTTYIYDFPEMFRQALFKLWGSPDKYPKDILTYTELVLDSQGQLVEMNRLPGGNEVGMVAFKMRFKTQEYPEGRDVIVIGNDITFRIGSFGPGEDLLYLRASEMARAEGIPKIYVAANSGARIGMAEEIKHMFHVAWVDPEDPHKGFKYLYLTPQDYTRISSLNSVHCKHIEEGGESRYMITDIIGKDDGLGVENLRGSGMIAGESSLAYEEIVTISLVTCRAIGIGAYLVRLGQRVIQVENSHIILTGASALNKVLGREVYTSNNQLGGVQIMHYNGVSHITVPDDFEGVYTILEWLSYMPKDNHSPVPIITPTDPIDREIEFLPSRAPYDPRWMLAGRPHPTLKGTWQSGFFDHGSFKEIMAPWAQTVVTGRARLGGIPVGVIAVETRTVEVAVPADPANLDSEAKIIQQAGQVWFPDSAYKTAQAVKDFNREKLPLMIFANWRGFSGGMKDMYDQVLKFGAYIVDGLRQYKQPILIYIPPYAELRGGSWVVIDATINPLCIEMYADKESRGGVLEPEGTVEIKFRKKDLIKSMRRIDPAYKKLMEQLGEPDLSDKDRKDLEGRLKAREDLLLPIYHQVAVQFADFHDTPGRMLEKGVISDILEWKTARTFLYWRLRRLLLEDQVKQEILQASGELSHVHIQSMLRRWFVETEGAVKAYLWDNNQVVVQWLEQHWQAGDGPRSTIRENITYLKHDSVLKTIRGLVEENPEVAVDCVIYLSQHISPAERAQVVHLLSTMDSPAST

| Structure (SMILES) | IC50 (human (hACC2) ACC2) [nM] | IC50 (fungal (fACC2) ACC2) [nM] | MIC (C. albicans ATCC 90028) [mg/L] | MIC (C. krusei ATCC 6258) [mg/L] | MIC [1] [mg/L] | also measured |
| --- | --- | --- | --- | --- | --- | --- |
| COc1ccccc1[C@H](Cn1c(=O)n(C(C)(C)C(=O)O)c(=O)c2c(C)c(-n3cccn3)sc21)O[C@H]1CC[C@@H](O)CC1 [Compound I-72] | 3 to 10 | 0.6 to 3 | > 4.1 | > 4.1 | > 4.1 | – |
| COCCOc1ccc(F)cc1[C@H](Cn1c(=O)n(C(C)(C)C(=O)NC(C)C)c(=O)c2c(C)c(-n3cccn3)sc21)OC1CCOCC1 [Compound I-49] | 3 to 10 | 0.6 to 3 | > 4.1 | 1.1 to 2 (≈ 1.64 to 2.98 µM) | > 4.1 | – |
| COCCOc1ccc(F)cc1[C@H](Cn1c(=O)n(C(C)(C)C(N)=O)c(=O)c2c(C)c(-n3cccn3)sc21)OC(C)C [Compound I-63] | 3 to 10 | 0.6 to 3 | > 4.1 | > 4.1 | > 4.1 | – |
| COc1ccc(F)cc1[C@H](Cn1c(=O)n(C(C)C(=O)NC(C)C)c(=O)c2c(C)c(-n3cccn3)sc21)OCC(C)(C)O (stereo partly drawn) [Compound I-67] | 10 to 40 | 0.6 to 3 | > 4.1 | > 4.1 | > 4.1 | – |
| COCCO[C@@H](Cn1c(=O)n(C(C)C(N)=O)c(=O)c2c(C)c(-n3cccn3)sc21)c1cc(F)ccc1OC (stereo partly drawn) [Compound I-56] | > 40 | 10 to 40 | > 4.1 | > 4.1 | > 4.1 | – |
| COc1ccc(F)cc1[C@H](Cn1c(=O)n(C(C)C(=O)N2CCCC2)c(=O)c2c(C)c(-n3cccn3)sc21)OCCO (stereo partly drawn) [Compound I-58] | 3 to 10 | 0.6 to 3 | > 4.1 | 2.1 to 4 (≈ 3.59 to 6.83 µM) | > 4.1 | – |
| COCCOc1ccc(F)cc1[C@H](Cn1c(=O)n(C(C)(C)C(=O)O)c(=O)c2c(C)c(-n3cccn3)sc21)OC(C)C [Compound I-64] | 3 to 10 | 0.6 to 3 | > 4.1 | > 4.1 | > 4.1 | – |
| COc1ccc(F)cc1[C@H](Cn1c(=O)n(C(C)C(N)=O)c(=O)c2c(C)c(-n3cccn3)sc21)OCC(C)(C)O (stereo partly drawn) [Compound I-68] | 10 to 40 | 0.6 to 3 | > 4.1 | > 4.1 | > 4.1 | – |
| Cc1c(-n2cccn2)sc2c1c(=O)n(C(C)(C)C(=O)NC(C)C)c(=O)n2C[C@H](OC1CCOCC1)c1cc(F)ccc1OCCO [Compound I-48] | 3 to 10 | 0.6 to 3 | > 4.1 | > 4.1 | > 4.1 | – |
| COCCCO[C@@H](Cn1c(=O)n(C(C)C(=O)NC(C)C)c(=O)c2c(C)c(-n3cccn3)sc21)c1cc(F)ccc1OC (stereo partly drawn) [Compound I-69] | 10 to 40 | 0.6 to 3 | > 4.1 | > 4.1 | > 4.1 | – |
| COc1ccccc1[C@H](Cn1c(=O)n(C(C)(C)C(=O)N2CCCC2)c(=O)c2c(C)c(-n3cccn3)sc21)OCCC#N [Compound I-84, (R)-3-(I-(2-methoxyphenyl)-2-(5-methyl-3-(2-methyl-1-oxo-1-(pyrrolidin-1-yl)propan-2-yl)-2,4-dioxo-6-(1H-pyrazol-1-yl)-3,4-dihydrothieno[2,3-d]pyrimidin-1(2H)-yl)ethoxy)propanenitrile] | 10 to 40 | 0.6 to 3 | > 4.1 | > 4.1 | > 4.1 | – |
| COCCOc1ccc(F)cc1[C@H](Cn1c(=O)n(C(C)(C)C(=O)N2CCCC2)c(=O)c2c(C)c(-n3cccn3)sc21)OC1CCOCC1 [Compound I-52] | 3 to 10 | 0.6 to 3 | 2.1 to 4 (≈ 3.07 to 5.85 µM) | 1.1 to 2 (≈ 1.61 to 2.92 µM) | 1.1 to 2 (≈ 1.61 to 2.92 µM) | – |
| COCCO[C@@H](Cn1c(=O)n(C(C)C(=O)N2CCCC2)c(=O)c2c(C)c(-n3cccn3)sc21)c1cc(F)ccc1OC (mixture of isomers) [Compound I-54, 1-((R)-2-(5-fluoro-2-methoxyphenyl)-2-(2-methoxyethoxy)ethyl)-5-methyl-3-(1-oxo-1-(pyrrolidin-1-yl)propan-2-yl)-6-(1H-pyrazol-1-yl)thieno[2,3-d]pyrimidine-2,4(1H,3H)-dione] | 10 to 40 | 0.6 to 3 | > 4.1 | > 4.1 | > 4.1 | – |
| COCCCO[C@@H](Cn1c(=O)n(C(C)C(=O)N2CCCC2)c(=O)c2c(C)c(-n3cccn3)sc21)c1cc(F)ccc1OC (stereo partly drawn) [Compound I-70] | 10 to 40 | 0.6 to 3 | > 4.1 | > 4.1 | > 4.1 | – |
| COc1ccccc1[C@H](Cn1c(=O)n(C(C)(C)C(N)=O)c(=O)c2c(C)c(-n3cccn3)sc21)OCCC#N [Compound I-83] | 10 to 40 | 3 to 10 | > 4.1 | > 4.1 | > 4.1 | – |
| COc1ccc(F)cc1[C@H](Cn1c(=O)n(C(C)C(=O)O)c(=O)c2c(C)c(-n3cccn3)sc21)OCC(C)(C)O (stereo partly drawn) [Compound I-62] | 3 to 10 | 0.6 to 3 | > 4.1 | > 4.1 | > 4.1 | – |
| COc1ccc(F)cc1[C@H](Cn1c(=O)n(C(C)C(=O)O)c(=O)c2c(C)c(-n3cccn3)sc21)OCC(C)=O (stereo partly drawn) [Compound I-65] | 10 to 40 | 3 to 10 | > 4.1 | > 4.1 | > 4.1 | – |
| COc1ccccc1[C@H](Cn1c(=O)n(C(C)(C)C(=O)O)c(=O)c2c(C)c(-n3cccn3)sc21)OC1CCOCC1 [Compound I-71] | 10 to 40 | 0.6 to 3 | > 4.1 | > 4.1 | > 4.1 | – |
| COc1ccc(F)cc1[C@H](Cn1c(=O)n(C(C)(C)C(=O)NC(C)C)c(=O)c2c(C)c(-n3cccn3)sc21)OCCO [Compound I-35, (R)-2-(1-(2-(5-fluoro-2-methoxyphenyl)-2-(2-hydroxy-ethoxy)ethyl)-5-methyl-2,4-dioxo-6-(1H-pyrazol-1-yl)-1,4-dihydrothieno[2,3-d]pyrimidin-3(2H)-yl)-N-isopropyl-2-methylpropanamide] | 10 to 40 | 0.6 to 3 | – | – | – | IC90 (Rhizoctonia solani (Rs); Table 4a): 2 mg/L (≈ 3.4 µM); IC90 (Rhizoctonia solani (Rs); Table 4b): 2 mg/L (≈ 3.4 µM); IC90 ([2]; Table 4a): 2 mg/L (≈ 3.4 µM); IC90 ([2]; Table 4b): 2 mg/L (≈ 3.4 µM); IC90 ([3]; Phytophthora capsici, Table 4a, read-out: Concentration at 90% Inhibition Pc): > 50 mg/L; Concentration at 90% Inhibition Pc ([3]; Table 4b): D (“D” provided a compound concentration of >50 ppm at 90% inhibition of fungal pathogens); IC90 ([4]; Table 4a): 2 mg/L (≈ 3.4 µM); IC90 ([4]; Table 4b): 2 mg/L (≈ 3.4 µM); IC90 (Diplodia maydis (Dm); Table 4a): > 50 mg/L; IC90 (Diplodia maydis (Dm); Table 4b): 10 mg/L (≈ 17 µM); IC90 ([5]; Table 4a): 0.4 mg/L (≈ 0.681 µM); IC90 ([5]; Table 4b): 0.4 mg/L (≈ 0.681 µM); IC90 (Botrtyis cinerea (Bc); Table 4a): 2 mg/L (≈ 3.4 µM); IC90 (Botrtyis cinerea (Bc); Table 4b): 2 mg/L (≈ 3.4 µM); Concentration at 90% Inhibition St (Septoria tritici (St); Table 4b): D (“D” provided a compound concentration of >50 ppm at 90% inhibition of fungal pathogens); IC90 (Septoria tritici (St); Zymoseptoria tritici, Table 4a, read-out: Concentration at 90% Inhibition St): > 50 mg/L |
